In patent US11866752B2, “Cysteine polysulfidation and mitochondrial bioenergetics regulated by cysteinyl-tRNA synthetase” (Bio-Xcelerator, Inc., priority 2018, dated 2024):

Legend:
ADH5 = target: T1, ADH5 (Homo sapiens, UniProt P11766); experiment: HPE-IAM labeling of ADH5 cysteine polysulfides, LC-ESI-MS/MS; conditions: treatment of ADH5
T1 construct: made in house; host or cells: Escherichia coli
Source text: Redox property of cysteine and protein polysulfides. CysSSHhas unique redox-active properties that distinguishes it from the cysteine (CysSH) thiol. […] Moreover, dialkylpolysulfides can also be nucleophilic and electrophile-mediated cleavage of S—S bonds is established28. The unique properties and reactivity of polysulfides allowed us to develop several analytical techniques aimed at determining endogenous production of LMW and protein-bound polysulfides (Supplementary FIG. 3). We first developed a convenient method for selective detection of polysulfidated proteins: the biotin-polyethylene glycol (PEG)-conjugated maleimide (biotin-PEG-MAL) labeling gel shift assay (PMSA; Supplementary FIG. 3a)15. […] We then used liquid chromatography-electrospray ionizationtandem mass spectrometry (LC-ESI-MS/MS) with 0-(4-hydroxyphenyl) ethyl iodoacetamide (HPE-IAM) as a trapping agent to identify and precisely quantify various hydropolysulfides, and also to verify the site specificity of polysulfidation as well as the number of sulfur atoms involved in proteins (Supplementary FIG. 5, and Supplementary Table 2). […]

EcCARS = target: T2, EcCARS (Escherichia coli, UniProt P21888); assay type: biochemical; conditions: for Persulfide generation by EcCARS with cysteine enantiomer as substrate: substrate enantioselectivity
T2 construct: His tag (inferred from nickel-NTA purification); made in house
T2 sequence (P21888 whole entry): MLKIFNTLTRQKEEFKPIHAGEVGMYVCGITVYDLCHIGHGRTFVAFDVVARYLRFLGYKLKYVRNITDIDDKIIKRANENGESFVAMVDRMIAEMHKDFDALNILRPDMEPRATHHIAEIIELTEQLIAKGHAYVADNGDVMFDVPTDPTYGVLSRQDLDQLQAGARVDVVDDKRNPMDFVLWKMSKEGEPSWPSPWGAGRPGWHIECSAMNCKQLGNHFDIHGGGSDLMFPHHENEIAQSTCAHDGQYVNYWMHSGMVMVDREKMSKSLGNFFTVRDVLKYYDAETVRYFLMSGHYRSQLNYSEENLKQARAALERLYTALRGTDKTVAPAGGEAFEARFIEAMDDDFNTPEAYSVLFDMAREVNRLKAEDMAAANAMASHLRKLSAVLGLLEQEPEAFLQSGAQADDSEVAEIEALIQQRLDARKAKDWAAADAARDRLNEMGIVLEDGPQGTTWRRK
Source text: The data are means ±s.d. […] Data represent means ±s.d.

human CARS2 = target: T3, human CARS2 (Homo sapiens, UniProt Q9HA77); experiment: CysSSH and CysSSSH biosynthesis by recombinant human CARS2
T3 sequence (Q9HA77 1-564): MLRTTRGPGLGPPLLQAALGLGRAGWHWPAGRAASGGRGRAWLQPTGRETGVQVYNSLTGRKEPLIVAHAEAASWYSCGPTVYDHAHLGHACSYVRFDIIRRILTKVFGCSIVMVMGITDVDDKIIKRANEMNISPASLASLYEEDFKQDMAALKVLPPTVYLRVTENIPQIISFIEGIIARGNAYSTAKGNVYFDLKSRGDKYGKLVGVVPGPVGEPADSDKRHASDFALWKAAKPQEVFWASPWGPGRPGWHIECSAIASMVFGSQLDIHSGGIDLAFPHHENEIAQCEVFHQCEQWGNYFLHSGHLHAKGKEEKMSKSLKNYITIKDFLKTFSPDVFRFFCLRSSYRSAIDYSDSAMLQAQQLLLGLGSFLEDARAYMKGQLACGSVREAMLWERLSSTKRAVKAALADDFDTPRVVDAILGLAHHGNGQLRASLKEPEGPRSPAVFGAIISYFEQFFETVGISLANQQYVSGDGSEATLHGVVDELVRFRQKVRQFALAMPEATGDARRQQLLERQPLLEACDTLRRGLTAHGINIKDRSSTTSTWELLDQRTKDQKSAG

mouse CARS1 = target: T4, mouse CARS1 (Mus musculus, UniProt Q9ER72); experiment: CysSSH and CysSSSH biosynthesis by recombinant mouse CARS1
T4 sequence (Q9ER72 1-748 isoform Q9ER72-2): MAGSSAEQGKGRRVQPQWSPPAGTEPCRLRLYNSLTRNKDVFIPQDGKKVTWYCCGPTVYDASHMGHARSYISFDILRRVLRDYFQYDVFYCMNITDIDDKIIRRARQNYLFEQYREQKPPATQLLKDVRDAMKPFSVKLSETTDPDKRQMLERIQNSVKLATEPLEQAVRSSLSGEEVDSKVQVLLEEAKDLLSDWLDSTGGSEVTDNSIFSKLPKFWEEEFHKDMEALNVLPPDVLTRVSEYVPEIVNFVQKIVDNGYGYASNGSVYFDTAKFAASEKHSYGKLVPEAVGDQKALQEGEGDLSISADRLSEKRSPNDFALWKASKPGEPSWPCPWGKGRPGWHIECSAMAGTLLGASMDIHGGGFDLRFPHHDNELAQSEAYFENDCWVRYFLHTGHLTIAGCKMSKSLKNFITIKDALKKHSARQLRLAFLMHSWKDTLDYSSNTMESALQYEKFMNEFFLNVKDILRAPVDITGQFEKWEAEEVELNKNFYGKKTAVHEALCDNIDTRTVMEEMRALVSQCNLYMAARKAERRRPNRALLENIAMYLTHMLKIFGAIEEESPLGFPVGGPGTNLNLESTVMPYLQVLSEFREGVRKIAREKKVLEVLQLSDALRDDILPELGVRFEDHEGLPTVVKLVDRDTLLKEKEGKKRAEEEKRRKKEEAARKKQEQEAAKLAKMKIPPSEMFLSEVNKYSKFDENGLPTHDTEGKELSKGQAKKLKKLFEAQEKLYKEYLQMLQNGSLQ

[1] = system: mitochondrial ETC in HEK293T cells; experiment: Effect of suppression of ETC on metabolic profiles of CysSSH; assay type: cell-based, human; conditions: HPE-IAM labeling LC-MS/MS
Description: Effect of suppression of ETC on metabolic profiles of CysSSH. The mito-chondrial ETC in HEK293T cells was inhibited either by a complex III inhibitor, antimycin A, or by elimination of mitochondrial DNA (mtDNA) induced by ethidium bromide. For the direct but partial ETC (complex III) inhibition, WT and CARS2 KO cells were treated with various concentrations of antimycin A for 1 h, followed by methanol extraction for measurement of CysSSH and its related sulfide derivatives by HPE-IAM labeling LC-ESI-MS/MS analysis as described earlier. […] The quantity of each sulfide produced from CARS2 in the cells was determined by subtracting the amount of each sulfide in CARS2 KO HEK293T cells from that in the WT cells, after quantification of each metabolite via HPE-IAM labeling LC-MS/MS analysis. Changes in the amounts of CysSSH (ACysSSH) and HS— (AHS-) induced by complex III inhibition by antimycin A or by mtDNA elimination in WT and CARS2 KO HEK293T cells were then calculated.

CSE = experiment: Kinetic parameters of recombinant CSE with L-cystine as substrate; assay type: biochemical, rat and human

T1 sequence (P11766 whole entry, species assumed): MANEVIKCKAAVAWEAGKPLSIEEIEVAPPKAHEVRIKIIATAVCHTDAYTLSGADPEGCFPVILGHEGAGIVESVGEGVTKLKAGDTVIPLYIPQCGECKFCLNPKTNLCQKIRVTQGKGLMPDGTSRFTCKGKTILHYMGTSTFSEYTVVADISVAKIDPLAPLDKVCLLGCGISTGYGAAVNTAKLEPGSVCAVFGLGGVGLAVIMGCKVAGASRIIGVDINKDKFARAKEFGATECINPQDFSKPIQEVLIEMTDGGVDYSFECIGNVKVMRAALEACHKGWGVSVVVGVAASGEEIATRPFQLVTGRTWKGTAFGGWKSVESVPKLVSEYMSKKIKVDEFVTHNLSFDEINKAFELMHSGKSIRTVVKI

Molecule: CCN1C(=O)C=CC1=O [N-ethylmaleimide]
- HPE-IAM labeling of CysSH and CysSSH/SSSH of ADH5 (ADH5): completely abrogated

Molecule: Cc1ncc(COP(=O)(O)O)c(C=O)c1O [pyridoxal phosphate]
- Dependence of persulfide synthase activity of EcCARS on added factor (EcCARS): depended partly
- Dependence of CysS-(S)n-H producing activity on PLP (human CARS2; human CARS2): depended on the presence of PLP
- Cysteine persulfide production in reaction mixture of cysteine and PLP alone (human CARS2; no enzyme, no >100 μM PLP): No appreciable cysteine persulfide production was detected
- Dependence of CysS-(S)n-H producing activity on PLP (mouse CARS1; mouse CARS1): depended on the presence of PLP

Molecule: Nc1ncnc2c1ncn2[C@@H]1O[C@H](COP(=O)(O)OP(=O)(O)OP(=O)(O)O)[C@@H](O)[C@H]1O [ATP]
- Dependence of persulfide synthase activity of EcCARS on added factor (EcCARS): but not on ATP

Molecule: antimycin A
- Change in CysSSH [1]: significant increase
- Change in HS- production [1]: reduction

Molecule: N[C@H](CS)C(=O)O [D-cysteine]
- Persulfide generation by EcCARS with cysteine enantiomer as substrate (EcCARS): but not D-cysteine demonstrated activity

Molecule: N[C@@H](CS)C(=O)O [L-cysteine]
- Persulfide generation by EcCARS with cysteine enantiomer as substrate (EcCARS): demonstrated activity

B1: mouse CARS1: recombinant cytosolic cysteinyl-tRNA synthetase (protein, UniProt Q9ER72 2-831, looked up)
Cysteine--tRNA ligase, …: AGSSAEQAADYRSILSISDEAARVQALDQHLSTRSYIQGYSLSQADVDVFRQLSAPPADSRLFHVARWFRHIEALLGGPQGRDEPCRLQASKGRRVQPQWSPPAGTEPCRLRLYNSLTRNKDVFIPQDGKKVTWYCCGPTVYDASHMGHARSYISFDILRRVLRDYFQYDVFYCMNITDIDDKIIRRARQNYLFEQYREQKPPATQLLKDVRDAMKPFSVKLSETTDPDKRQMLERIQNSVKLATEPLEQAVRSSLSGEEVDSKVQVLLEEAKDLLSDWLDSTGGSEVTDNSIFSKLPKFWEEEFHKDMEALNVLPPDVLTRVSEYVPEIVNFVQKIVDNGYGYASNGSVYFDTAKFAASEKHSYGKLVPEAVGDQKALQEGEGDLSISADRLSEKRSPNDFALWKASKPGEPSWPCPWGKGRPGWHIECSAMAGTLLGASMDIHGGGFDLRFPHHDNELAQSEAYFENDCWVRYFLHTGHLTIAGCKMSKSLKNFITIKDALKKHSARQLRLAFLMHSWKDTLDYSSNTMESALQYEKFMNEFFLNVKDILRAPVDITGQFEKWEAEEVELNKNFYGKKTAVHEALCDNIDTRTVMEEMRALVSQCNLYMAARKAERRRPNRALLENIAMYLTHMLKIFGAIEEESPLGFPVGGPGTNLNLESTVMPYLQVLSEFREGVRKIAREKKVLEVLQLSDALRDDILPELGVRFEDHEGLPTVVKLVDRDTLLKEKEGKKRAEEEKRRKKEEAARKKQEQEAAKLAKMKIPPSEMFLSEVNKYSKFDENGLPTHDTEGKELSKGQAKKLKKLFEAQEKLYKEYLQMLQNGSLQ
- CysS-(S)n-H producing activity (mouse CARS1; recombinant mouse CARS1): strong

B2: CSE: cystathionine γ-lyase (cystathionase), recombinant rat and human (protein, UniProt P32929 1-405, looked up)
Cystathionine gamma-lyase: MQEKDASSQGFLPHFQHFATQAIHVGQDPEQWTSRAVVPPISLSTTFKQGAPGQHSGFEYSRSGNPTRNCLEKAVAALDGAKYCLAFASGLAATVTITHLLKAGDQIICMDDVYGGTNRYFRQVASEFGLKISFVDCSKIKLLEAAITPETKLVWIETPTNPTQKVIDIEGCAHIVHKHGDIILVVDNTFMSPYFQRPLALGADISMYSATKYMNGHSDVVMGLVSVNCESLHNRLRFLQNSLGAVPSPIDCYLCNRGLKTLHVRMEKHFKNGMAVAQFLESNPWVEKVIYPGLPSHPQHELVKRQCTGCTGMVTFYIKGTLQHAEIFLKNLKLFTLAESLGGFESLAELPAIMTHASVLKNDRDVLGISDTLIRLSVGLEDEEDLLEDLDQALKAAHPPSGSHS
modifications: also rat
notes: cystathionine γ-lyase (cystathionase), recombinant rat and human
- Km (CSE): > 200 µM
